Measurements reported in patent US6699877B2 (Gruenenthal GmbH, priority 2000, dated 2004).

Biological target: T1, glycine binding site of the NMDA receptor channel (Rattus norvegicus, UniProt P35439)
T1 construct: from tissue; host or cells: rat brain cortex and hippocampus membrane homogenate
Experiment: Receptor binding, displacement of (3H)-MDL 105.519 on rat cerebral membrane homogenates
Conditions: 10 μmol/l test substance; 1 nmol/l (3H)-MDL 105.519; read-out: Displacement (%, 10 μmol/l) of radioactive ligand from specific binding
Description: Receptor Binding (Glycine Binding Site of the NMDA Receptor Channel)
Experiments to determine the affinity of the compounds according to the invention of Formula I to the glycine binding site of the NMDA receptor channel were carried out on cerebral membrane homogenates (homogenate of Cortex- and Hippocampus-Areal from the brain of male rats, Wistar strain) (B. M. Baron, B. W. Siegel, B. L. Harrison, R. S. Gross, C. and P. Towers, Journal of Pharmacology and Experimental Therapeutics, Vol. 279, p. 62, 1996).
For this purpose, Cortex and Hippocampus from freshly removed rats' brains were dissected, homogenized in 5 mmol/l TRIS-acetate buffer, 0.32 mol/l sacharose pH 7.4 (10 ml/g fresh weight) with a Potter homogenizer (made by Braun/Melsungen, 10 piston strokes at 500 rpm) while cooling with ice and subsequently centrifuged for 10 minutes at 1,000 g and 4° C. The first supernatant material was collected and the sediment homogenized again with […] TRIS-acetate buffer, 0.32 mol/l safcharose pH 7.4 (5 ml/g original fresh weight) using the Potter homogenizer (10 piston strokes at 500 rpm) while cooling with ice and centrifuged for 10 minutes at 1,000 g and 4° C. The resultant supernatant material was combined with the supernatant material from the first centrifugation and centrifuged at 17,000 g for 20 minutes at 4° C. The supernatant material after this centrifugation was discarded, the membrane sediment taken up with 5 mmol/l TRIS-acetate buffer pH 8.0 (20 ml/g original fresh weight) and homogenized with 10 piston strokes at 500 rpm.
The membrane homogenate was then incubated for 1 hour at 4° C. and centrifuged for 30 minutes at 50,000 g and 4° C. The supernatant material was discarded and the centrifuge tube with the membrane sediment sealed with parafilm and frozen for 24 hours at −20° C. The membrane sediment was thawed on the following day, taken up with ice-cold 5 mmol/l TRIS-acetate buffer, 0.1% saponin (w/v) pH 7.0 (10 ml/g original fresh weight), homogenized with 10 piston strokes at 500 rpm and subsequently centrifuged for 20 minutes at 50,00 g and 4° C. The resultant supernatant material was discarded, the sediment taken up in a small volume with 5 mmol/l TRIS-acetate buffer pH 7.0 (about 2 ml/g original fresh weight) and homogenized again with 10 piston strokes at 500 rpm. After determining the protein content, the membrane homogenate was adjusted to a protein concentration of 10 mg protein/ml using 5 mmol/l TRIS-acetate buffer pH 7.0 and frozen in aliquots for testing.
For the receptor binding test, aliquots were thawed, diluted 1:10 with 5 mmol/l TRIS-acetate buffer pH 7.0, homogenized with 10 piston strokes at 500 rpm using the potter homogenizer (10 piston strokes at 500 rpm) while cooling with ice and centrifuged for 60 minutes at 55,000 g at 4° C. The supernatant material was decanted, the membrane sediment adjusted to a protein concentration of 1 mg/ml with ice-cold 50 mmol/l TRIS-acetate buffer pH 7.0, homogenized again with 10 piston strokes at 500 rpm and kept in suspension in the ice bath while stirring on a magnetic stirrer. 100 μl of this membrane homogenate per 1 ml of feedstock was used in each case in the receptor binding test (0.1 mg protein/ml in the final batch).
In the binding test, 50 mmol/l TRIS-acetate buffer pH 7.0 was used as buffer and 1 nmol/l (^3H)-MDL 105.519 (B. M. Baron et al 1996) was used as radioactive ligand. The proportion of unspecific binding was determined in the presence of 1 mmol/l glycine.
In further batches, the compounds according to the invention were added in concentration series and the displacement of the radioactive ligand from its specific binding to the glycine binding site of the NMDA receptor channel determined. The respective triple batches were incubated for 120 minutes at 4° C. and then harvested to determine the radioactive ligands bound to the membrane homogenate by filtration through glass fiber filter mats (GF/B). […]

Row | inhibition at 10 µM | Structure (SMILES)
1 | 75% | O=C(O)C1CC(c2ccccc2)c2c(Cl)cc(Cl)cc2N1 (centres unmarked) [Example 15, 5,7-dichloro-4-phenyl-1,2,3,4-tetrahydroquinoline-2-carboxylic Acid]
2 | 61% | Cc1ccc(C2CC(C(=O)O)Nc3cc(Cl)cc(Cl)c32)cc1 (centres unmarked) [Example 20, 5,7-dichloro-4-p-tolyl-1,2,3,4-tetrahydroquinoline-2-Carboxylic Acid]
3 | 26% | CCOC(=O)C1CC(c2ccc(C)cc2C)c2c(Cl)cc(Cl)cc2N1 (centres unmarked) [Example 21, 5,7-dichloro-4-(2,4-dimethylphenyl)-1,2,3,4-tetrahydroquinoline-2-carboxylic Acid Ethyl Ester]
4 | 68% | Cc1ccc(C2CC(C(=O)O)Nc3cc(Cl)cc(Cl)c32)c(C)c1 (centres unmarked) [Example 22, 5,7-dichloro-4-(2,4-dimethylphenyl)-1,2,3,4-tetrahydroquinoline-2-carboxylic Acid]
5 | 32% | CCOC(=O)C1CC(c2ccc(F)cc2)c2c(Cl)cc(Cl)cc2N1 (centres unmarked) [Example 30, 5,7-dichloro-4-(4-fluorophenyl)-1,2,3,4-tetrahydroquinoline-2-carboxylic Acid Ethyl Ester]
6 | 58% | O=C(O)C1CC(c2ccc(F)cc2)c2c(Cl)cc(Cl)cc2N1 (centres unmarked) [Example 31, 5,7-dichloro-4-(4-fluorophenyl)-1,2,3,4-tetrahydroquinoline-2-carboxylic Acid]
7 | 92% | O=C(O)C1CC(c2ccccc2Cl)c2c(Cl)cc(Cl)cc2N1 (centres unmarked) [Example 32, 5,7-dichloro-4-(2-chlorophenyl)-1,2,3,4-tetrahydroquinoline-2-carboxylic Acid]
8 | 70% | O=C(O)C1CC(c2ccc(Br)cc2)c2c(Cl)cc(Cl)cc2N1 (centres unmarked) [Example 40, 4-(4-bromophenyl)-5,7-dichloro-1 ,2,3,4-tetrahydroquinoline-2-carboxylic Acid]
9 | 22% | CCOC(=O)C1CC(c2ccccc2Cl)c2cc(Cl)ccc2N1 (centres unmarked) [Example 52, 6-chloro-4-(2-chlorophenyl)-1,2,3,4-tetrahydroquinoline-2-carboxylic Acid Ethyl Ester]
10 | 14% | CCOC(=O)C1Nc2cc(Cl)cc(Cl)c2C2CCCC12 (centres unmarked) [Example 59, 7,9-dichloro-2,3,3a,4,5,9b-hexahydro-1H-cyclopenta[c]quinoline-4-carboxylic Acid Ethyl Ester]
11 | 79% | Cc1cccc(C2CC(C(=O)O)Nc3c(Cl)cc(F)cc32)c1 (centres unmarked) [Example 84, 8-chloro-6-fluoro-4-m-tolyl-1,2,3,4-tetrahydroquinoline-2-carboxylic acid]

The next lines start with the compound.

Row | Structure (SMILES) | inhibition at 10 µM
12 | CCOC(=O)C1CC(c2ccccc2)c2c(Cl)cc(Cl)cc2N1 (centres unmarked) [Example 14, 5,7-dichloro-4-phenyl-1,2,3,4-tetrahydroquinoline-2-carboxylic Acid Ethyl Ester] | 38%
13 | CCOC(=O)C1CC(c2ccccc2C)c2c(Cl)cc(Cl)cc2N1 (centres unmarked) [Example 16, 5,7-dichloro-4-o-tolyl-1,2,3,4-tetrahydroquinoline-2-carboxylic Acid Ethyl Ester] | 35%
14 | CCOC(=O)C1CC(c2cccc(C)c2)c2c(Cl)cc(Cl)cc2N1 (centres unmarked) [Example 17, 5,7-dichloro-4-m-tolyl-1,2,3,4-tetrahydroquinoline-2-carboxylic Acid Ester] | 21%
15 | Cc1cccc(C2CC(C(=O)O)Nc3cc(Cl)cc(Cl)c32)c1 (centres unmarked) [Example 18, 5,7-dichloro-4-m-tolyl-1,2,3,4-tetrahydroquinoline-2-carboxylic Acid] | 51%
16 | CCOC(=O)C1CC(c2ccc(C)cc2)c2c(Cl)cc(Cl)cc2N1 (centres unmarked) [Example 19, 5,7-dichloro-4-p-tolyl-1,2,3,4-tetrahydroquinoline-2-carboxylic Acid Ethyl Ester] | 26%
17 | O=C(O)C1CC(c2ccccc2F)c2c(Cl)cc(Cl)cc2N1 (centres unmarked) [Example 27, 5,7-dichloro-4-(2-fluorophenyl)-1,2,3,4-tetrahydroquinoline-2-carboxylic Acid] | 75%
18 | CCOC(=O)C1CC(c2cccc(F)c2)c2c(Cl)cc(Cl)cc2N1 (centres unmarked) [Example 28, 5,7-dichloro-4-(3-fluorophenyl)-1,2,3,4-tetrahydroquinoline-2-carboxylic Acid Ethyl Ester] | 35%
19 | O=C(O)C1CC(c2cccc(F)c2)c2c(Cl)cc(Cl)cc2N1 (centres unmarked) [Example 29, 5,7-dichloro-4-(3-fluorophenyl)-1,2,3,4-tetrahydroquinoline-2-carboxylic Acid] | 78%
20 | CCOC(=O)C1CC(c2ccccc2Br)c2c(Cl)cc(Cl)cc2N1 (centres unmarked) [Example 36, 4-(2-bromophenyl)-5,7-dichloro-1,2,3,4-tetrahydroquinoline-2-carboxylic Acid Ethyl Ester] | 46%
21 | O=C(O)C1CC(c2cccc(Br)c2)c2c(Cl)cc(Cl)cc2N1 (centres unmarked) [Example 38, 4-(3-bromophenyl)-5,7-dichloro-1,2,3,4-tetrahydroquinoline-2-carboxylic Acid] | 72%
22 | CCOC(=O)C1CC(c2cccc(C(F)(F)F)c2)c2c(Cl)cc(Cl)cc2N1 (centres unmarked) [Example 41, 5,7-dichloro-4-(3-trifluoromethylphenyl)-1,2,3,4-tetrahydroquinoline-2-carboxylic Acid Ethyl Ester] | 38%
23 | CCOC(=O)C1Nc2cc(Cl)cc(Cl)c2C(c2ccccc2)C1C (centres unmarked) [Example 42, 5,7-dichloro-3-methyl-4-phenyl-1,2,3,4-tetrahydroquinoline-2-carboxylic Acid Ethyl Ester] | 21%
24 | CCOC(=O)C1CC(c2ccc(F)cc2)c2cc(Cl)ccc2N1 (centres unmarked) [Example 51, 6-chloro-4-(4-fluorophenyl)-1,2,3,4-tetrahydroquinoline-2-carboxylic Acid Ethyl Ester] | 21%
25 | CCOC(=O)C1CC(c2ccccc2Br)c2cc(Cl)ccc2N1 (centres unmarked) [Example 54, 6-chloro-4-(2-bromophenyl)-1,2,3,4-tetrahydroquinoline-2-carboxylic Acid Ethyl Ester] | 22%
26 | CCOC(=O)C1Nc2cc(Cl)cc(Cl)c2C2C3CCC(C3)C12 (centres unmarked) [Example 60, 1,3-dichloro-7,10-methano-5,6,6a,7,8,9,10,10a-octahydrophenanthridine-6-carboxylic Acid Ethyl Ester] | 23%
27 | CCOC(=O)C1Nc2cc(Cl)cc(Cl)c2C2c3ccccc3CC12 (centres unmarked) [Example 61] | 15%
28 | O=C(O)C1CC(c2ccc3ccccc3c2)c2cc(F)cc(Cl)c2N1 (centres unmarked) [Example 81, 8-chloro-6-fluoro-4-naphthalene-2-yl-1,2,3,4-tetrahydroquinoline-2-carboxylic acid] | 66%
29 | COc1ccc(C2c3cc(Oc4ccccc4)ccc3NC(C(=O)O)C2C)cc1 (centres unmarked) [Example 82, 4-(4-methoxyphenyl)-3-methyl-6-phenoxy-1,2,3,4-tetrahydroquinoline-2-carboxylic acid] | 96%
30 | Cc1cccc(C2CC(C(=O)O)Nc3c(F)cc(Cl)cc32)c1 (centres unmarked) [Example 83, 6-chloro-8-fluoro-4-m-tolyl-1,2,3,4-tetrahydroquinoline-2-carboxylic acid] | 93%
31 | O=C(O)C1CC(c2ccc(Br)cc2)c2cc(Cl)cc(F)c2N1 (centres unmarked) [Example 85, 4-(4-bromophenyl)-6-chloro-8-fluoro-1,2,3,4-tetrahydroquinoline-2-carboxylic acid] | 61%
32 | Cc1ccc(C2CC(C(=O)O)Nc3c2ccc(Cl)c3Cl)c(C)c1 (centres unmarked) [Example 86, 7,8-dichloro-4-(2,4-dimethylphenyl)-1,2,3,4-tetrahydroquinoline-2-carboxylic acid] | 33%
